Earlier results in patent US12622888B2, “Pharmaceutical composition and application thereof” (priority 2019, dated 2026).

Tested on: infarct size of the heart
Details: prior art CN2011102229806, FIG. 3

O=C(/C=C/c1ccc(O)c2c1[C@H](C(=O)O[C@H](Cc1ccc(O)c(O)c1)C(=O)O)[C@@H](c1ccc(O)c(O)c1)O2)O[C@H](Cc1ccc(O)c(O)c1)C(=O)O [salvianolic acid B]
rank order of the effect on reducing the infarct size: salvianolic acid B <ginsenoside Rg1<<salvianolic acid B: ginsenoside Rg1=2:5 group

CC(C)=CCC[C@](C)(O[C@@H]1O[C@H](CO)[C@@H](O)[C@H](O)[C@H]1O)[C@H]1CC[C@]2(C)[C@@H]1[C@H](O)C[C@@H]1[C@@]3(C)CC[C@H](O)C(C)(C)[C@@H]3[C@@H](O[C@@H]3O[C@H](CO)[C@@H](O)[C@H](O)[C@H]3O)C[C@]12C [ginsenoside Rg1]
rank order of the effect on reducing the infarct size: salvianolic acid B <ginsenoside Rg1<<salvianolic acid B: ginsenoside Rg1=2:5 group
